# Like-named read-outs stand apart in the source and are kept apart here.
# Legend:
# GC3/M TK- cells = experiment: Inhibition of growth of tumor cells, thymidine kinase-deficient human colon adenocarcinoma GC3/M TK- (MTT); type: cell-based; details: for IC50: read-out: Cell Culture IC50, GC3-M (TK-)
# Procedure: (§1) In Vitro Testing to Determine Inhibition of Growth of Tumor Cells
# (§2) Growth was measured over 3 days (L1210) or 5 days (CCRF-CEM, GC3 /M TK^-) of continuous exposure to varying concentrations of each test compound, added 4 h. after initial cell plating, by the MTT-tetrazolium reduction assay of T. J. Mosmann [J. Immunol. Meth. […] Water insoluble derivatives were dissolved in DMSO and diluted to a final concentration of 0.5% solvent in cell cultures.
# [1] = target: E. coli TS (thymidylate synthase) (Escherichia coli, UniProt P0A884); experiment: Inhibition constants against 5,10-methylenetetrahydrofolate for thymidylate synthase, E. coli enzyme (tritium release); type: biochemical
# Sequence of E. coli TS (thymidylate synthase) (P0A884 whole entry): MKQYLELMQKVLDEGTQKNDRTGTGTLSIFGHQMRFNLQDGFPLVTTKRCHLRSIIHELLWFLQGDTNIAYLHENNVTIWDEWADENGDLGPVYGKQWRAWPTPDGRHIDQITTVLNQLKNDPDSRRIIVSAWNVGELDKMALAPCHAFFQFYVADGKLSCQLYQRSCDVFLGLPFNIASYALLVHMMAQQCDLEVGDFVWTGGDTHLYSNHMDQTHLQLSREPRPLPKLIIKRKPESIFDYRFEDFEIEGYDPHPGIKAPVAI
# Procedure: (§3) Determination of Inhibition Constants Against 5,10-Methylenetetrahydrofolate for the Enzyme Thymidylate Synthase
# (§4) Inhibition constants, Ki, slope and Ki, intercept [W. W. Cleland, Biochim. Biophys. […] The cofactor was present as the variable substrate under conditions of saturating radiolabelled 2'-deoxyuridine 5-monophosphate (dUMP). […] Assays of human TS also contained 1-5 μg/mL bovine serum albumin to stabilize the protein. Reactions were initiated by the addition of enzyme and were carried out for 5 minutes at 24° C., and then quenched by the addition of charcoal (15 mg in 0.1 mL H2 O). The quenched samples were centrifuged at 10,000 rpm for 12-15 min at […] to remove unreacted dUMP which had bound to the charcoal, and 0.1 mL of the supernatant was counted by liquid scintillation in the presence of 5 mL ecolume to determine the release of tritium label from the 5-position of the dUMP. […] Experimental results were analyzed by EZ-FIT, a nonlinear regression analysis program (Perrella Scientific, Springfield, Pa.) which was used to fit all data points simultaneously to a mixed noncompetitive inhibition scheme.
# [2] = system: L1210 murine leukemia cells; experiment: Inhibition of growth of tumor cells, L1210 murine leukemia (MTT); type: cell-based; details: for IC50: read-out: Cell Culture IC50, L1210; for inhibition at 50 µM: read-out: growth inhibition, L1210
# Procedure: as §1, §2
# CCRF-CEM cells = experiment: Inhibition of growth of tumor cells, CCRF-CEM human lymphoblastic leukemia (MTT); type: cell-based; details: for IC50: read-out: Cell Culture IC50, CCRF-CEM; for inhibition at 50 µM: read-out: growth inhibition, CCRF-CEM
# Procedure: as §1, §2
# [3] = target: human TS (thymidylate synthase) (Homo sapiens, UniProt P04818); experiment: Inhibition constants against 5,10-methylenetetrahydrofolate for thymidylate synthase, human enzyme (tritium release); type: biochemical; details: cofactor as variable substrate, pH 7.6, 24° C.
# Sequence of human TS (thymidylate synthase) (P04818 2-313 limits assumed): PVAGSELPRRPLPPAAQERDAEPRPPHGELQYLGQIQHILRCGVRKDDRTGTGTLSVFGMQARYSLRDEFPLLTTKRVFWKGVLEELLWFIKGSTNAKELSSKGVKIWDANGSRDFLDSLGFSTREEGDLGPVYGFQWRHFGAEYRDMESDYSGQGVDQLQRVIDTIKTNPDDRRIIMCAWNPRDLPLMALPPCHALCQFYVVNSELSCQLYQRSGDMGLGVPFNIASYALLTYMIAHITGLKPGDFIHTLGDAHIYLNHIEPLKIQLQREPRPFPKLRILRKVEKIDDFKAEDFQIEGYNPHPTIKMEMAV
# Procedure: as §3, §4
# [4] = Homo sapiens, GC3/MTK-, 120 h, 5 days continuous exposure, MTT
# [5] = Mus musculus, L1210, 72 h, 3 days continuous exposure, MTT
# [6] = Homo sapiens, CCRF-CEM, 120 h, 5 days continuous exposure, MTT
# [7] = read-out: Ki Data, human thymidylate synthase
# [8] = Ki Data, human thymidylate synthase
# [9] = 5 days continuous exposure, MTT
# [10] = 3 days continuous exposure, MTT
# [11] = Mus musculus, L1210, 72 h, @ > 50 μM, 3 days
SMILES,IC50 (GC3/M TK- cells; [4]) [µM],Ki [1] [µM],"IC50 [2, 5] [µM]",IC50 (CCRF-CEM cells; [6]) [µM],"Ki [3, 7] [µM]",further results
"Cc1ccc2nc(N)[nH]c(=O)c2c1Sc1ccncc1 [Compound 14A, 2-Amino-3,4-dihydro-6-methyl-4-oxo-5-(4-pyridylthio)-quinazoline]",1,0.15 ± 0.03,1,0.81,–,–
COc1ccc(-c2cncn2Cc2cccc3nc(C)[nH]c(=O)c23)cc1 [Compound 33A],> 25,36 ± 1.5,25,18,47 ± 17,"inhibition at 25 µM (GC3/M TK- cells; Homo sapiens, GC3/MTK-, 120 h, @ > 25 μM, 5 days): 20%"
Cc1nc2cccc(Sc3cc[n+](Cc4ccccc4)cc3)c2c(=O)[nH]1 [Compound 22A],> 2.5,9.3 ± 1.6,> 2.5,> 2.5,1.1 ± 0.3,"growth inhibition, GC3-M (TK-) (GC3/M TK- cells; @ > 2.5 μM, 5 days): none; inhibition at 2.5 µM ([2]; Mus musculus, L1210, 72 h, @ > 2.5 μM, 3 days): 4%; growth inhibition, CCRF-CEM (CCRF-CEM cells; @ > 2.5 μM, 5 days): none"
"COc1ccc2nc(C)[nH]c(=O)c2c1Sc1ccncc1 [Compound 13A, 3,4-Dihydro-6-methoxy-2-methyl-4-oxo-5-(4-pyridylthio)-quinazoline]",32,–,21,26,–,–
"Cc1cc(Sc2c(C)ccc3nc(C)[nH]c(=O)c23)ccn1 [Compound 12A, 3,4-Dihydro-2,6-dimethyl-4-oxo-5-[4-(2-picolinylthio)]-quinazoline]",5,0.55 ± 0.05,4.2,4.2,–,"Ki [3, 8]: 0.07 ± 0.001 µM"
Cc1ccc2nc(N)[nH]c(=O)c2c1Sc1ccncc1 [Compound 25A],–,–,–,–,–,"IC50 (GC3/M TK- cells; [9]): 1.7 µM; IC50 [2, 10]: 0.59 µM; IC50 (CCRF-CEM cells; [9]): 1.1 µM"
"COc1cc(Sc2c(C)ccc3nc(C)[nH]c(=O)c23)ccn1 [Compound 16A, 3,4-Dihydro-2,6-dimethyl-4-oxo-5-[4-(6-methoxypyridylthio)]quinazoline]",> 5,0.76 ± 0.12,–,–,–,"Ki [3, 8]: 0.048 ± 0.006 µM"
Cc1ccc2nc(N)[nH]c(=O)c2c1Sc1ccnnc1 [Compound 30A],1.5,–,1.6,0.88,0.011,–
Cc1nc2ccc(C)c(Sc3nnc(C)s3)c2c(=O)[nH]1 [Compound 11A],> 3.33,21 ± 13,> 3.33,> 3.33,2 ± 0.4,"growth inhibition, GC3-M (TK-) (GC3/M TK- cells; @ > 3.33 μM, 5 days): none; growth inhibition, L1210 ([2]; @ > 3.33 μM, 3 days): none; inhibition at 3.33 µM (CCRF-CEM cells; Homo sapiens, CCRF-CEM, 120 h, @ > 3.33 μM, 5 days): 17%"
Cc1nc2cccc(Cn3cncc3-c3ccc([N+](=O)[O-])cc3)c2c(=O)[nH]1 [Compound 32A],> 10,> 10,> 10,6,> 10,"inhibition at 10 µM (GC3/M TK- cells; Homo sapiens, GC3/MTK-, 120 h, @ > 10 μM, 5 days): 30%"
"Cc1nc2ccc(C)c(Sc3ccc(C(=O)N[C@@H](CCC(=O)O)C(=O)O)cc3)c2c(=O)[nH]1 [Compound 27A, N-[4-((3,4-Dihydro-2,6-dimethyl-4-oxo-5-quinazolinyl)thio)benzoyl]-L-glutamic acid]",4.1,–,1.05,0.99,–,"Ki [3, 8]: 0.00795 µM"
"Cc1nc2cccc(Cn3ccc4cc(Cl)ccc43)c2c(=O)[nH]1 [Compound 3A, 5-Chloro-N-[(3,4-dihydro-2-methyl-4-oxo-5-quinazolyl)methyl]indole]",> 12.7,> 3,–,> 12.3,> 3,"inhibition at 12.7 µM (GC3/M TK- cells; Homo sapiens, GC3/MTK-, 120 h, > 12.7 μM, 5 days): 20%; inhibition at 12.3 µM (CCRF-CEM cells; Homo sapiens, CCRF-CEM, 120 h, > 12.3 μM, 5 days): 10%"
"Cc1ccc2nc(N)[nH]c(=O)c2c1Sc1ccnc(C(F)(F)F)c1 [Compound 18A, 2-Amino-3,4-dihydro-6-methyl-4-oxo-5-[4-(6-trifluoromethylpyridylthio)]-quinazoline]",> 2,–,1.8,> 2,–,"inhibition at 2 µM (GC3/M TK- cells; Homo sapiens, GC3/MTK-, 120 h, @ > 2.0 μM, 5 days): 33%; inhibition at 2 µM (CCRF-CEM cells; Homo sapiens, CCRF-CEM, 120 h, @ > 2.0 μM, 5 days): 33%"
Cc1nc(O)c2c(Oc3ccccc3)cccc2n1 [Compound 1A],–,> 100,–,–,–,–
"Cc1nc2cccc(C(O)(c3ccccc3)c3ccccc3)c2c(=O)[nH]1 [Compound 6A, 3,4-Dihydro-5-(α-diphenyl-hydroxymethyl)-2-methyl-4-oxo-quinazoline]",> 4.98,> 10,2.3,4,> 10,–
Cc1nc2ccc(C)c(Sc3ccnnc3)c2c(=O)[nH]1 [Compound 29A],> 12.5,–,–,–,0.12 ± 0.02,–
Cc1nc2ccc(C)c(Sc3ccncc3)c2c(=O)[nH]1 [Compound 23A],–,–,–,–,–,"Ki [3, 8]: 0.13 ± 0.009 µM; IC50 (GC3/M TK- cells; [9]): 6.1 µM; IC50 [2, 10]: 3.5 µM; IC50 (CCRF-CEM cells; [9]): 5.1 µM"
"Cc1nc2ccc(C)c(Sc3ccc(C(=O)O)cc3)c2c(=O)[nH]1 [Compound 28A, 4-[(3,4-Dihydro-2,6-dimethyl-4-oxo-5-quinazolinyl)thio]-benzoic acid]",> 50,–,> 50,> 50,–,"Ki [3, 8]: 0.115 µM; growth inhibition, GC3-M (TK-) (GC3/M TK- cells; @ > 50 μM, 5 days): none; inhibition at 50 µM [2, 11]: 27%; growth inhibition, CCRF-CEM (CCRF-CEM cells; @ > 50 μM, 5 days): none"
Cc1nc2ccc(C)c(Sc3ccc([N+](=O)[O-])cc3)c2c(=O)[nH]1 [Compound 10A],> 4,0.75 ± 0.08,3,2.9,–,"Ki [3, 8]: 0.083 ± 0.011 µM"
Cc1nc2cccc(Cn3cncc3-c3ccccc3)c2c(=O)[nH]1 [Compound 31A],> 50,21 ± 6,48,> 50,51 ± 2.2,–
"Cc1nc2ccc(C)c(Sc3ccnc(C(F)(F)F)c3)c2c(=O)[nH]1 [Compound 17A, 3,4-Dihydro-2,6-dimethyl-4-oxo-5-[4-(6-trifluoromethylpyridylthio)]-quinazoline]",–,–,–,–,0.13 ± 0.03,–
Cc1nc2cccc(Sc3ccncc3)c2c(=O)[nH]1 [Compound 7A],> 26.9,38 ± 5,–,> 26.9,2.1 ± 0.5,"growth inhibition, GC3-M (TK-) (GC3/M TK- cells; @ > 26.9 μM, 5 days): none; growth inhibition, L1210 ([2]; @ 20 um, 3 days): 68%; inhibition at 26.9 µM (CCRF-CEM cells; Homo sapiens, CCRF-CEM, 120 h, @ > 26.9 μM, 5 days): 37%"
Cc1nc(O)c2c(Sc3ccccc3)cccc2n1 [Compound 2A],–,> 10,–,–,–,–
Cc1nc2ccc(C)c(Sc3ccc(S(=O)(=O)c4ccccc4)cc3)c2c(=O)[nH]1 [Compound 9A],4.5,–,1.8,2.1,–,–
"Cc1nc2ccc(C)c(Sc3ccnc(N(C)C)c3)c2c(=O)[nH]1 [Compound 26A, 3,4-Dihydro-2,6-dimethyl-4-oxo-5-[4-(6-dimethylaminopyridylthio)]-quinazoline]",18,–,4.05,10.5,–,"Ki [3, 8]: 0.079 µM"
Cc1ccc2nc(N)[nH]c(=O)c2c1Sc1ccncc1 [Compound 24A],1.2,–,0.55,1.1,–,–
"Cc1nc2ccc(O)c(Sc3ccncc3)c2c(=O)[nH]1 [Compound 15A, 3,4-Dihydro-6-hydroxy-2-methyl-4-oxo-5-(4-pyridylthio)-quinazoline]",> 50,–,> 50,> 50,19 ± 11,"inhibition at 50 µM (GC3/M TK- cells; Homo sapiens, GC3/MTK-, 120 h, @ > 50 μM, 5 days): 4%; inhibition at 50 µM [2, 11]: 27%; inhibition at 50 µM (CCRF-CEM cells; Homo sapiens, CCRF-CEM, 120 h, @ > 50 μM, 5 days): 40%"
Cc1nc2ccc(C)c(Sc3cccnc3)c2c(=O)[nH]1 [Compound 21A],–,–,–,–,–,"Ki [3, 8]: 190 ± 25 µM; growth inhibition, GC3-M (TK-) (GC3/M TK- cells; @ > 50 μM, 5 days): none; IC50 (GC3/M TK- cells; Homo sapiens, GC3/MTK-, 120 h): > 50 µM; IC50 ([2]; Mus musculus, L1210, 72 h): > 50 µM; inhibition at 50 µM ([2]; Mus musculus, L1210, 72 h): 28%; IC50 (CCRF-CEM cells; Homo sapiens, CCRF-CEM, 120 h): > 50 µM; inhibition at 50 µM (CCRF-CEM cells; Homo sapiens, CCRF-CEM, 120 h): 42%"

# Source: patent US5430148A, “Antiproliferative quinazolines” (Agouron Pharmaceuticals, Inc., priority 1992, dated 1995)
